# Earlier results, collected in patent publication US20220225611A1, “NON-NATURAL INSECT PHEROMONE BLEND COMPOSITIONS” (Provivi, Inc., priority 2019, published 2022).
# Columns and labels:
# C. suppressalis = conditions: Chen et al. (2018)
# S. incertulas = conditions: Cork & Souza (1996)
SMILES,effect on attractiveness of a pheromone mixture (C. suppressalis),effect of presence in a pheromone blend on mating disruption (S. incertulas)
"CCCCCCCC/C=C\CCCCCCCC=O [Z9-18Ald, (Z)-9-Octadecenal]",reduces the attractiveness,–
"CCCC/C=C\CCCCCCCCCCCC=O [Z13-18Ald, (Z)-13-Octadecenal]",–,not be produce increased mating disruption
